From ChEMBL document CHEMBL1122528, “Synthesis and evaluation of furan, thiophene, and azole bis[(carbamoyloxy)methyl] derivatives as potential antineoplastic agents” (J Med Chem, 1984) come the findings set out here.

The source made the active and inactive calls. The rule behind the calls is not given here.

This assay has as its system P388. As to the kind of experiment: Compound was tested for antileukemic activity against murine P388 lymphocytic leukemia; Inactive. In kind it is functional, cell-based. To be noted: Mus musculus.
In the case of `CNC(=O)OCc1c(COC(=O)NC)c(-c2ccc(C)cc2)n(C)c1C`, the outcome was inactive. The entry for `CNC(=O)OCc1c(C)sc(-c2ccccc2)c1COC(=O)NC` is “inactive”. As for `CNC(=O)OCc1onc(-c2ccccc2)c1COC(=O)NC`, the entry is “inactive”; as for `CNC(=O)OCc1nc(-c2ccccc2)oc1COC(=O)NC`, “inactive”; as for `CNC(=O)OCc1snc(-c2ccccc2)c1COC(=O)NC`, “inactive”. Take `CNC(=O)OCc1cn(-c2ccc(Cl)c(Cl)c2)nc1COC(=O)NC`: the result was inactive.

On to `CNC(=O)OCc1nnn(-c2ccccc2)c1COC(=O)NC`, for which the result was inactive. The entry for `CNC(=O)OCc1nc(-c2ccccc2)sc1COC(=O)NC` is “inactive”; for `CNC(=O)OCc1c(COC(=O)NC)c(C)n(-c2ccccc2)c1C` it is “inactive”.
